Test results reported in patent US20080262066A1, “Azole Derivatives as Cannabinoid CB1 Receptor Antagonists” (Green Cross Corporation, priority 2007, published 2008).

Biological target: T1, rat CB-1 receptor (Rattus norvegicus, UniProt P20272)
T1 construct: The tissue obtained from the brain of SD rats was homogenized; from tissue; host or cells: SD rat brain (membrane pellet of homogenate)
Assay: rat CB-1 receptor binding protocol with [3H]CP-55940 on SD rat brain tissue
Conditions: [3H]CP-55940 displacement, SD rat brain homogenate, 30° C., 60 min; read-out: IC50 (binding affinity for CB1 receptor)

T1 sequence (P20272 whole entry): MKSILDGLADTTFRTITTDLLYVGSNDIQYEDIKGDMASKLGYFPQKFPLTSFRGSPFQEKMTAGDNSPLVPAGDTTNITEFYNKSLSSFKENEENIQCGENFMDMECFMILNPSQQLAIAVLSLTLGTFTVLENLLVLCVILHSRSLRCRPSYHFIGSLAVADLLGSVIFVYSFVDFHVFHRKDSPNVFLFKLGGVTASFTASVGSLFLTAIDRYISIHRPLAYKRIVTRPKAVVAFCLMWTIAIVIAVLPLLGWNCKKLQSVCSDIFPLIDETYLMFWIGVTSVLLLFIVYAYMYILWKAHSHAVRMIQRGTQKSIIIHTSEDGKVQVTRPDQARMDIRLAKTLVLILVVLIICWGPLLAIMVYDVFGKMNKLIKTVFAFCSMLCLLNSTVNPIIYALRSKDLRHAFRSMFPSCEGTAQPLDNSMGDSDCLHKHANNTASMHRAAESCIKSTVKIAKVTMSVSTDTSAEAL

SMILES	IC50 [nM]
Cc1c(C(=O)NCNC(=O)C(C)C)nn(-c2ccc(Cl)cc2Cl)c1-c1ccc(Cl)cc1 [Example 37, 5-(4-Chlorophenyl)-1-(2,4-dichlorophenyl)-N-(isobutyramidomethyl)-4-methyl-1H-pyrazole-3-carboxamide]	951
Cc1c(C(=O)NCNC(=O)CC2CCCCC2)nn(-c2ccc(Cl)cc2Cl)c1-c1ccc(Cl)cc1 [Example 39, 5-(4-Chlorophenyl)-N-((2-cyclohexylacetamido)methyl)-1-(2,4-dichlorophenyl)-4-methyl-1H-pyrazole-3-carboxamide]	46.5
Cc1c(C(=O)NCNC(=O)C2CCCC(C)C2)nn(-c2ccc(Cl)cc2Cl)c1-c1ccc(Cl)cc1 (stereo not drawn) [Example 40, 5-(4-Chlorophenyl)-1-(2,4-dichlorophenyl)-4-methyl-N-((3-methylcyclohexanecarboxamido)methyl)-1H-pyrazole-3-carboxamide]	102
Cc1c(C(=O)NCNC(=O)CC2CCCC2)nn(-c2ccc(Cl)cc2Cl)c1-c1ccc(Cl)cc1 [Example 41, 5-(4-Chlorophenyl)-N-((2-cyclopentylacetamido)methyl)-1-(2,4-dichlorophenyl)-4-methyl-1H-pyrazole-3-carboxamide]	138

Continued by falling IC50, values first:

IC50 [nM]	SMILES
905	CCCC(=O)NCNC(=O)c1nn(-c2ccc(Cl)cc2Cl)c(-c2ccc(Cl)cc2)c1C [Example 36, N-(Butyramidomethyl)-5-(4-chlorophenyl)-1-(2,4-dichlorophenyl)-4-methyl-1H-pyrazole-3-carboxamide]
75.6	Cc1c(C(=O)NCNC(=O)C2CCCCCC2)nn(-c2ccc(Cl)cc2Cl)c1-c1ccc(Cl)cc1 [Example 38, 5-(4-Chlorophenyl)-N-(cycloheptanecarboxamidomethyl)-1-(2,4-dichlorophenyl)-4-methyl-1H-pyrazole-3-carboxamide]
